Laboratory results published in patent US20230033195A1, “METHODS AND COMPOSITIONS FOR IMPROVING COGNITIVE FUNCTION” (THE JOHNS HOPKINS UNIVERSITY, priority 2011, published 2023).

Assays:
[1] = test system: memory-impaired aged rats; settings: cited from earlier work
[2] = aged rats, chronic subcutaneous 100 mg/kg/day; cited from earlier work
aged-impaired (AI) rats = assay: eight-arm Radial Arm Maze (RAM) task with one-hour delay, spatial memory retention; type: in vivo, rat

SMILES | performance in a memory test ([1]; chronic subcutaneous 100 mg/kg/day) | blood total valproate level [2] | effective in reducing the number of errors, on its own (aged-impaired (AI) rats; valproate subcutaneous 25 mg/kg) | effective in reducing the number of errors, on its own (aged-impaired (AI) rats; valproate subcutaneous 50 mg/kg) | effective in reducing the number of errors, on its own (aged-impaired (AI) rats; valproate subcutaneous 100 mg/kg) | treatment of cognitive impairment ([1]; chronic subcutaneous 50 mg/kg/day)
CCCC(CCC)C(=O)[O-].[Na+] [sodium valproate] | significantly improved | 10 µg/ml plasma | – | – | – | –
CCCC(CCC)C(=O)O [valproate, 2-propylpentanoate] | – | – | not | not | effective | not effective
